US20250230138A1, “COMPOUNDS HAVING A T-STRUCTURE FORMED BY AT LEAST FOUR CYCLES FOR USE IN THE TREATMENT OF CANCER AND OTHER INDICATIONS” (TheRas, Inc., priority 2022, published 2025)

Columns and labels:
[1] = molecular target: Cys242 in human PIK3CA (157-299) (Homo sapiens (Human), UniProt P42336); assay: Covalent modification assay using MALDI-TOF MS; type: biochemical; conditions: 4 h reaction time point; 3.33 μM protein target, 1:7.5 protein to compound ratio (compounds 1-852)
In short: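 Covalent adduct formation was read by linear-mode MALDI-TOF with sinapinic acid matrix, reported as modified-protein peak height divided by total protein peak heights. Reactions held PIK3CA (157-299) at 1 or 3.33 μM in HEPES/NaCl/MgCl2 buffer, pH 7.3, sampled after 15 min to 4 h at room temperature.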

pAKT in BT474 cells = assay: Cell-based pAKT HTRF assay in BT474 cells; conditions: BT474 cells; 4 hr incubation; Compounds 10-999; read-out: pAKT inhibition IC50 in BT474 cells
In short: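 pAKT was measured by HTRF after a 4 hr compound exposure in BT474 cells (DMEM, 10% FBS, 0.25% DMSO), using 9 concentrations from 3 μM in 3-fold steps. Cell lysates were incubated with the Eu cryptate/d2 antibody pair at room temperature for 4 to 24 h. The plate was then read at 320 nm excitation and 615 nm emission.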

Cys242 in human PIK3CA (157-299), sequence (P42336 157-299): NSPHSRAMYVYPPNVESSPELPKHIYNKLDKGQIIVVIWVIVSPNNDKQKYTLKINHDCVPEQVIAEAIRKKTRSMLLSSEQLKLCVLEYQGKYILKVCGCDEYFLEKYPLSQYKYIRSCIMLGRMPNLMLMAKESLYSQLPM

IC50 (pAKT in BT474 cells) | SMILES | % of modification [1]
0.1 to 1 µM | C=CC(=O)N1CC[C@H](n2cc(-c3nc(-c4cnn(C)c4)c4ccsc4c3-c3c(F)cc(F)cc3OCCOC)cn2)C1 [Compound 368] | A (percent of modification of PIK3CA protein ≥75%)
< 0.1 µM | C=CC(=O)N1CCc2ncc(-c3nc(-c4cnn(CC(F)F)c4)c4ccsc4c3-c3c(F)cc(F)cc3OC(C)C)cc2C1 [Compound 371] | A (percent of modification of PIK3CA protein ≥75%)
< 0.1 µM | C=CC(=O)N1CCc2ncc(-c3nc(-c4cnc(N)nc4)c4ccsc4c3-c3c(F)cc(F)cc3OC(C)C)cc2C1 [Compound 372] | A (percent of modification of PIK3CA protein ≥75%)
< 0.1 µM | C=CC(=O)N1CCc2ncc(-c3nc(-c4ccn(C)c(=O)c4)c4ccsc4c3-c3c(F)cc(F)cc3OCCOC)cc2C1 [Compound 374] | A (percent of modification of PIK3CA protein ≥75%)
< 0.1 µM | C=CC(=O)N1CCc2ncc(-c3nc(-c4ccc(=O)n(C)c4)c4ccsc4c3-c3c(F)cc(F)cc3OCCOC)cc2C1 [Compound 375] | A (percent of modification of PIK3CA protein ≥75%)
< 0.1 µM | C=CC(=O)N1CCc2ncc(-c3nc(-c4cnc5c(c4)CN(C)CC5)c4ccsc4c3-c3c(F)cc(F)cc3OCCOC)cc2C1 [Compound 378] | A (percent of modification of PIK3CA protein ≥75%)
< 0.1 µM | C=CC(=O)N1CCc2ncc(-c3nc(-c4ccc5c(c4)CNC5=O)c4ccsc4c3-c3c(F)cc(F)cc3OCCOC)cc2C1 [Compound 379] | A (percent of modification of PIK3CA protein ≥75%)
< 0.1 µM | C=CC(=O)N1CCc2ncc(-c3nc(-c4cccc(C#N)c4)c4ccsc4c3-c3c(F)cc(F)cc3OC(C)C)cc2C1 [Compound 381] | A (percent of modification of PIK3CA protein ≥75%)
< 0.1 µM | C=CC(=O)N1CCc2ncc(-c3nc(-c4cnn(CC(F)F)c4)c4ccsc4c3-c3c(F)cc(F)cc3OCCOC)cc2C1 [Compound 385] | A (percent of modification of PIK3CA protein ≥75%)
0.1 to 1 µM | C=CC(=O)N1CC[C@@H](n2cc(-c3nc(-c4cnn(CC(F)F)c4)c4ccsc4c3-c3c(F)cc(F)cc3OC(C)C)cn2)C1 [Compound 387] | A (percent of modification of PIK3CA protein ≥75%)
0.1 to 1 µM | C=CC(=O)N1CC[C@@H](n2cc(-c3nc(-c4cncc(C#N)c4)c4ccsc4c3-c3c(F)cc(F)cc3OC(C)C)cn2)C1 [Compound 388] | A (percent of modification of PIK3CA protein ≥75%)
< 0.1 µM | C=CC(=O)N1CC[C@@H](n2cc(-c3nc(-c4ccc(=O)n(C)c4)c4ccsc4c3-c3c(F)cc(F)cc3OC(C)C)cn2)C1 [Compound 389] | A (percent of modification of PIK3CA protein ≥75%)
< 0.1 µM | C=CC(=O)N1CCc2nc(-c3nc(-c4ncn(C)n4)c4ccsc4c3-c3c(F)cc(F)cc3OC(C)C)sc2C1 [Compound 390] | A (percent of modification of PIK3CA protein ≥75%)
< 0.1 µM | C=CC(=O)N1CCn2nc(-c3nc(-c4cnn(C)c4)c4ccsc4c3-c3ccc(F)cc3OC(C)C)cc2C1C (centres unmarked) [Compound 394] | A (percent of modification of PIK3CA protein ≥75%)
< 0.1 µM | C=CC(=O)N1CCc2nc(-c3nc(-c4cnn(C)c4)c4ccsc4c3-c3c(F)cc(F)cc3OCCO)sc2C1 [Compound 398] | A (percent of modification of PIK3CA protein ≥75%)

Second part, the molecule before the results:

SMILES | IC50 (pAKT in BT474 cells) | % of modification [1]
C=CC(=O)N1CCc2nc(-c3nc(-c4cnc5c(c4)CN(C)CC5)c4ccsc4c3-c3c(F)cc(F)cc3OCCOC)sc2C1 [Compound 365] | < 0.1 µM | A (percent of modification of PIK3CA protein ≥75%)
C=CC(=O)N1CCc2nc(-c3nc(-c4ccc5c(c4)CCNC5)c4ccsc4c3-c3c(F)cc(F)cc3OCCOC)sc2C1 [Compound 366] | 0.1 to 1 µM | A (percent of modification of PIK3CA protein ≥75%)
C=CC(=O)N1CCc2nc(-c3nc(-c4ccc5c(c4)CCNC5)c4ccsc4c3-c3c(F)cc(F)cc3OC(C)C)sc2C1 [Compound 367] | 0.1 to 1 µM | A (percent of modification of PIK3CA protein ≥75%)
C=CC(=O)N1CCc2nc(-c3nc(-c4ccc5c(c4)CCN(C)C5)c4ccsc4c3-c3c(F)cc(F)cc3OCCOC)sc2C1 [Compound 369] | < 0.1 µM | A (percent of modification of PIK3CA protein ≥75%)
C=CC(=O)N1CCc2ncc(-c3nc(N4CCN(C(C)C)CC4)c4ccsc4c3-c3c(F)cc(F)cc3OC(C)C)cc2C1 [Compound 373] | 0.1 to 1 µM | A (percent of modification of PIK3CA protein ≥75%)
C=CC(=O)N1CCc2ncc(-c3nc(-c4cncc(C#N)c4)c4ccsc4c3-c3c(F)cc(F)cc3OCCOC)cc2C1 [Compound 376] | < 0.1 µM | A (percent of modification of PIK3CA protein ≥75%)
C=CC(=O)N1CCc2ncc(-c3nc(-c4cncc(Cl)c4)c4ccsc4c3-c3c(F)cc(F)cc3OCCOC)cc2C1 [Compound 377] | < 0.1 µM | A (percent of modification of PIK3CA protein ≥75%)
C=CC(=O)N1CCc2ncc(-c3nc(-c4cccc(C#N)c4)c4ccsc4c3-c3c(F)cc(F)cc3OCCOC)cc2C1 [Compound 380] | < 0.1 µM | A (percent of modification of PIK3CA protein ≥75%)
C=CC(=O)N1CCc2ncc(-c3nc(-c4cnnc(C)c4)c4ccsc4c3-c3c(F)cc(F)cc3OCCOC)cc2C1 [Compound 383] | < 0.1 µM | A (percent of modification of PIK3CA protein ≥75%)
C=CC(=O)N1CCc2ncc(-c3nc(-c4ccc5c(c4)C(O)CC5)c4ccsc4c3-c3c(F)cc(F)cc3OC(C)C)cc2C1 (centres unmarked) [Compound 384] | < 0.1 µM | A (percent of modification of PIK3CA protein ≥75%)
C=CC(=O)N1CC[C@@H](n2cc(-c3nc(-c4ccn(C)c(=O)c4)c4ccsc4c3-c3c(F)cc(F)cc3OC(C)C)cn2)C1 [Compound 386] | < 0.1 µM | A (percent of modification of PIK3CA protein ≥75%)
C=CC(=O)N1CC[C@@H](n2cc(-c3nc(-c4cnnc(C)c4)c4ccsc4c3-c3c(F)cc(F)cc3OC(C)C)cn2)C1 [Compound 391] | < 0.1 µM | A (percent of modification of PIK3CA protein ≥75%)
C=CC(=O)N1CCc2ncc(-c3nc(-c4cnc(C)s4)c4ccsc4c3-c3c(F)cc(F)cc3OC(C)C)cc2C1 [Compound 392] | < 0.1 µM | A (percent of modification of PIK3CA protein ≥75%)
C=CC(=O)N1CCc2ncc(-c3nc(-c4cnn(C)c4)c4ccsc4c3-c3c(F)cc(F)cc3OCCOC)cc2C1 [Compound 393] | < 0.1 µM | A (percent of modification of PIK3CA protein ≥75%)
C=CC(=O)N1CCc2ncc(-c3nc(-c4cnn(C)c4)c4ccsc4c3-c3c(F)cc(F)cc3OCCO)cc2C1 [Compound 395] | < 0.1 µM | A (percent of modification of PIK3CA protein ≥75%)
C=CC(=O)N1CCc2ncc(-c3nc(-c4ccc5c(c4)C(O)CC5)c4ccsc4c3-c3c(F)cc(F)cc3OCCOC)cc2C1 (centres unmarked) [Compound 397] | < 0.1 µM | A (percent of modification of PIK3CA protein ≥75%)
C=CC(=O)N1CCc2ncc(-c3nc(-c4ccc5c(c4)CCN(C)C5)c4ccsc4c3-c3c(F)cc(F)cc3OC(C)C)cc2C1 [Compound 399] | < 0.1 µM | A (percent of modification of PIK3CA protein ≥75%)
C=CC(=O)N1CCc2ncc(-c3nc(-c4ccc5nn(C)cc5c4)c4ccsc4c3-c3c(F)cc(F)cc3OCCOC)cc2C1 [Compound 400] | < 0.1 µM | A (percent of modification of PIK3CA protein ≥75%)
C=CC(=O)N1CCc2nc(-c3nc(-c4cnn(CC(C)(C)N)c4)c4ccsc4c3-c3c(F)cc(F)cc3OC(C)C)sc2C1 [Compound 401] | 0.1 to 1 µM | A (percent of modification of PIK3CA protein ≥75%)
C=CC(=O)N1CCc2ncc(-c3nc(-c4ccc5c(c4)CN(C)C5=O)c4ccsc4c3-c3c(F)cc(F)cc3OCCOC)cc2C1 [Compound 402] | < 0.1 µM | A (percent of modification of PIK3CA protein ≥75%)
C=CC(=O)N1CCc2ncc(-c3nc(-c4ccc5ncn(C)c5c4)c4ccsc4c3-c3c(F)cc(F)cc3OCCOC)cc2C1 [Compound 403] | < 0.1 µM | A (percent of modification of PIK3CA protein ≥75%)
C=CC(=O)N1CCc2ncc(-c3nc(-c4ccn(C)n4)c4ccsc4c3-c3c(F)cc(F)cc3OC(C)C)cc2C1 [Compound 404] | < 0.1 µM | A (percent of modification of PIK3CA protein ≥75%)
C=CC(=O)N1CCc2ncc(-c3nc(-c4cnn(C)c4)c4ccsc4c3-c3c(F)cc(F)cc3OC)cc2C1 [Compound 405] | < 0.1 µM | A (percent of modification of PIK3CA protein ≥75%)
C=CC(=O)N1CCc2ncc(-c3nc(-c4cncc(F)c4)c4ccsc4c3-c3c(F)cc(F)cc3OC(C)C)cc2C1 [Compound 406] | < 0.1 µM | A (percent of modification of PIK3CA protein ≥75%)
C=CC(=O)N1CCc2ncc(-c3nc(-c4ccc5c(c4)CN(C)C5=O)c4ccsc4c3-c3c(F)cc(F)cc3OC(C)C)cc2C1 [Compound 407] | < 0.1 µM | A (percent of modification of PIK3CA protein ≥75%)
